Starred links: 1 amine or outer side, 2 acyl side, 3 side chain; linkers in the order of their positions; H or OH if unused. Positions of bridges follow the written chain, without caps; N, C: chain ends. Non-standard residues stand in square brackets, D forms with d. Residues, ends and D or L forms follow the SMILES beside them. Leu(3R-O(AcLeu(3R-OH))) = CC(=O)N[C@H](C(=O)O[C@H](C(C)C)[C@H](N)C(=O)O)[C@H](O)C(C)C; X1 = CO[C@H](C)C(C(=O)[*:2])N(C)[*:1]; dPhLac = O=C(O)[C@H](O)Cc1ccccc1; NMeA = CN[C@@H](C)C(=O)O; NMeDha = C=C(NC)C(=O)O
Assays:
[1] = test system: ADP receptors (P2Y1, P2Y2); conditions: in-vitro tests, Non-Patent Citation 3; cited from earlier work
[2] = test system: LTD4-induced airway contraction; test: Action on the LTD4-induced airway contraction response by intratracheal administration; type: in vivo, Hartley male guinea pigs; conditions: guinea pigs
Description: Hartley male guinea pigs (Japan SLC, Inc.) were used in experiments. Urethane (1.2 g/kg) was administered intraperitoneally to the guinea pigs for anesthesia. Using needles (30 G), the test compounds (0.3, 1, and 3 μg/kg) at a volume of 0.5 mL/kg or physiological saline was administered by intratracheal injection (3 animals in each group). Cannulation for intravenous administration was carried out in the external jugular vein of the guinea pigs. A tracheostomy cannula was inserted through an incision in the trachea and mechanical ventilation (10 mL/kg, 60 times/min) was carried out using a mechanical ventilator (MODEL683, HARVARD). The mechanical ventilator circuit was connected with a pressure transducer (TP-400T, Nihon Kohden Corporation) and the change in airway pressure was measured. The airway pressure signal was amplified with a strain pressure amplifier (AP-601G, Nihon Kohden Corporation) and recorded on chart paper by a thermal pen recorder (LINEARCORDER F WR3701, Graphtec). The body temperature of the guinea pigs was maintained at 37° C. using a body temperature-maintaining device (BWT-100, Bio Research Center). At 30 minutes after injection by intratracheal administration of the test compound, a solution of LTD4 in physiological saline (0.3 μg/kg) was administered intravenously to induce the airway contraction response.

[3] = test system: muscarinic receptors (M1); conditions: in-vitro tests, Non-Patent Citation 3; cited from earlier work
[4] = test system: tobacco smoke inhalation-induced airway inflammation; test: Action of nasal drop administration on the tobacco smoke inhalation-induced airway inflammation; type: in vivo, BALB/c male mice; conditions: mice, nasal drop 1, 10 and 100 μg/kg once a day; bronchoalveolar lavage cell count at Day 11
Description: BALB/c male mice (Charles River Laboratories Japan, Inc.) were used in experiments. Sodium pentobarbital (40 mg/kg) was administered intraperitoneally to the mice for anesthesia. During a period of time ranging from Day 0 to Day 10 (except for Days 5 and 6), the test compound (1, 10, and 100 μg/kg) were administered nasally to the mice once a day. The Vehicle group was similarly injected with physiological saline by nasal drop administration. There were 10 animals in each group. The mice were put into chambers at 1 hour after nasal drop administration, and using a tobacco smoke generator (SG-200, Sibata Scientific Technology Ltd.), the tobacco smoke was inhaled to a concentration in air up to 4% for 1 hour. After intraperitoneal administration of sodium pentobarbital (80 mg/kg) to the mice at Day 11, the mice were subject to blood removal to be euthanized. After respiratory arrest, the trachea was incised, bronchoalveolar lavage was performed with PBS(−) 0.5 mL×3 times, and the washing liquid was collected. The supernatant was removed by centrifugation, the cells were then resuspended in PBS(−), and for white blood cells (WBC), neutrophils (NEUT), lymphocytes (LYMPH), macrophages (MONO), and eosinophils (EO), the cell count was measured with a Multiple Parameter Automatic Hematology Analyzer (XT-2000i, Sysmex Corporation).

blood pressure = conditions: intravenous 30 μg/kg, Non-Patent Citation 4; cited from earlier work
Gq/11 = test: Inhibitory action on Gq/11: LTD4-induced cellular Ca2+ change in CHO cells stably expressing CysLTR2 (FLIPR); type: cell-based; conditions: read-out: Gq/11 inhibitory activities (IC50 values), 10 nM LTD4, maximum Fluo-4 fluorescence intensity
Description: The test was carried out according to the method of Non-Patent Citation 3, using a leukotriene receptor CysLTR2 (cysteinyl leukotriene receptor 2), which is known to activate Gq/11. CHO cells stably expressing CysLTR2 were seeded on a 96-well black/clear bottom plate (manufactured by Becton, Dickinson and Company) at 20,000 cells per well, and after 24 hours of seeding, the medium was discarded. Then, Hanks BSS (GIBCO Inc.) including 2 μM Fluo-4, AM (manufactured by Molecular Probe Co.), 0.004% pluronic acid, 1% FBS, 20 mM HEPES, and 2.5 mM probenecid was added thereto at 100 μL per well, followed by incubation at 37° C. for 1 hour. After incubation, the resultant was washed four times with Hanks BSS including 20 mM HEPES, and Hanks BSS including 20 mm HEPES per well was added thereto 100 μL per well. In addition, 50 μL of a test compound that had been diluted with Hanks BSS including 20 mM HEPES to a final concentration from 1×10^−10 M to 1×10^−5 M was added thereto, followed by being left to stand at room temperature for 30 minutes. The change of cellular Ca^2+ concentration after addition of leukotriene D4 (LTD4, manufactured by Cayman Co.), which is a CysLTR2 ligand, was measured over time using an FLIPR (Molecular Device Corp.). 50 μL it of leukotriene D4 that had been diluted with Hanks BSS including 20 mM HEPES to a final concentration of 10 nM at 10 seconds after the initiation of measurement was added thereto, fluorescence intensities were measured every second for 50 seconds and every sixth second for 2 minutes, and a maximum fluorescence intensity during a measurement time of 3 minutes was observed. By plotting the concentrations and the fluorescence intensities of the test compounds, the IC50 values were calculated, which were taken as Gq/11 inhibitory activities.

G15 and G16 = conditions: Non-Patent Citation 3; cited from earlier work

C=C1C(=O)N[C@@H](C)C(=O)N(C)[C@@H](C)C(=O)N[C@@H]([C@H](OC(=O)[C@@H](NC(C)=O)[C@H](O)C(C)C)C(C)C)C(=O)N(C)C([C@@H](C)OC)C(=O)O[C@H](C)[C@H](NC(C)=O)C(=O)O[C@H](Cc2ccccc2)C(=O)N1C (stereo partly drawn) [Ref 1] (Ac-T[dPhLac][NMeDha]A[NMeA][Leu(3R-O(AcLeu(3R-OH)))][X1]; ester 1-C)
reactions of ADP receptors (P2Y1, P2Y2) [1]: inhibits | ED50 ([2]; Cavia porcellus, iv, intratracheal, 30 minutes before LTD4 0.3 μg/kg i.v., read-out: ED50 value of inhibition of LTD4-induced airway contraction): 1.1 µg/kg | LTD4-induced airway contraction response ([2]; intratracheal administration): inhibited | reactions of muscarinic receptors (M1) [3]: inhibits | infiltration of eosinophils into the airway [4]: significantly inhibited | infiltration of lymphocytes into the airway [4]: significantly inhibited | infiltration of neutrophils into the airway [4]: significantly inhibited | hypotensive action (blood pressure): hypotensive action | IC50 (Gq/11): 66 nM | inhibition of G15 and G16 (G15 and G16): does not inhibit

— patent US20110207655A1, “CYCLIC DEPSIPEPTIDE COMPOUND AND USE THEREOF” (Astellas Pharma Inc., priority 2008, published 2011)
